Tests used:
Crabgrass = experiment: Test 3 postemergence weed control; type: in vivo, Digitaria spp; settings: scale 0-100
Experimental: Seeds of crabgrass (Digitaria spp), guinea grass (Panicum maximum) and narrowleaf panicum (P. maximum) were planted in 15-cm plastic pots. The weeds were treated postemergence with compound I, formulated in a non-phytotoxic solvent, when the plants had 3 or more leaves and had tillered. The degree of weed control was visually rated 17 days after compound application (DAT). Control ratings were based on a scale of 0 to 100 where 0 = no effect, 20 = minimal control and 100 = complete control.

Convolvulus arvensis = experiment: Test 1 greenhouse, postemergence; type: in vivo; settings: 21 days, scale 0-100
Experimental: (§1) Seeds of Bromus tectorum, Kochia scoparia, Salsoa kali, Avena fatua, Convolvulus arvensis, Secale cereale, Setaria viridis and Triticum aestivum were placed in 26-cm plastic pans containing a pasteurized sandy loam soil (pH 6.5, 1% organic matter). Plantings were maintained in the greenhouse for 18-28 days at which time the postemergence treatments were applied using a nonphytotoxic solvent as the carrier for the herbicide. The preemergence segment of the test was seeded immediately before herbicide application using Bromus tectorum, Kochia scoparia, Polygonum convolvulus, Salsoa kali, Avena fatua, Convolvulus arvensis, Secale cereale, Setaria viridis, Aegilops cylindrica, Amaranthus retroflexus, Chenopodium album, Hordeum vulgare, Triticum aestivum, Sorghum bicolor, and Zea mays. All treatments were maintained in the greenhouse for an additional 21 days at which time visual assessment of weed control was determined using a scale of 0 to 100 for each species where 0 represented no control and 100 represented complete control.

Salsoa kali = experiment: Test 1 greenhouse, postemergence; type: in vivo; settings: 21 days, scale 0-100
Experimental: as §1

Avena fatua = experiment: Test 1 greenhouse, postemergence; type: in vivo; settings: 21 days, scale 0-100
Experimental: as §1

Bromus tectorum = experiment: Test 1 greenhouse, postemergence; type: in vivo; settings: 21 days, scale 0-100
Experimental: as §1

Kochia scoparia = experiment: Test 1 greenhouse, postemergence; type: in vivo; settings: 21 days, scale 0-100
Experimental: as §1

Secale cereale = experiment: Test 1 greenhouse, postemergence; type: in vivo; settings: 21 days, scale 0-100
Experimental: as §1

Wild buckwheat = experiment: Test 10 postemergence safety to crops and weed control; type: in vivo, Polygonum convolvulus; settings: 16 g/ha, scale 0-100
Experimental: The object of these tests was to evaluate the compound of this invention for postemergence safety to crops and weed control. Seedling and budded Macedine grapes were grown in 11.4-cm pots. Flax, green foxtail (Setaria viridis), "Morex" barley, wild oats (Avena fatua), "Era" wheat, annual ryegrass (Lolium multiflorum), wild radish (Raphanus raphanistrum), rape, sunflower, chickweed (Stellaria media) and wild buckwheat (Polygonum convolvulus) were seeded in windowsill pots.
The plants were sprayed postemergence with Compound I in a non-phytotoxic solvent. Plants were visually rated 15 and 27 days after treatment (DAT). Injury and weed control ratings were based on the scale of 0 to 100 where 0 = no effect, 20 minimal control and 100 = complete control.

Coffee = experiment: Test 9 postemergence; type: in vivo; settings: scale 0-100
Experimental: Plastic windowsill pots containing planting medium were seeded with bahiagrass, bindweed (Convolvulus spp), guinea grass (Panicum maximum), large crabgrass (Digitaria sanguinalis) and pigweed (Amaranthus spp). Individual 15-cm plastic pots contained sandbur (Cenchrus echinatus), Mikania cordata, Boston fern (Nephrolepis exalata), quackgrass (Agropyron repens), elephantgrass (Pennisetum purpureum) and sowthistle (Sonchus spp) plants.
Plants were treated postemergence with Compound I formulated in a non-phytotoxic solvent. Plants were visually rated 22 days after treatment (DAT). Injury and weed control ratings were based on the scale of 0 to 100 where 0 = no effect, 20 = minimal control and 100 = complete control.

Sheperdspurse = experiment: Test 7 postemergence; type: in vivo, Capsella bursa-pastoris; settings: scale 0-100
Experimental: Individual 11.4-cm plastic pots filled with planting medium were seeded with rape, wild radish (Raphanus raphanistruna). tansy mustard (Descurainia pinnata), ball mustard (Neslia paniculata), black mustard (Brassica nigra), yellow mustard, brown mustard, lentils, safflower, flax, sunflower, peanut, vetch, alfalfa, field bean, pea, violet (Viola spp), Kochia (Kochia spp), Russian thistle (Salsola spp), Matricaria spp, groundsel (Senecio spp), shepherdspurse (Capsella bursa-pastoris), nightshade (Solanum spp), sowthistle (Sonchus spp), sugar beet, wheat, "Bonanza" barley and "Morex" barley, Kentucky bluegrass (Poa pratensis), red clover (Trifolium pratense), dandelion (Taraxacum spp) and buckhorn plantain (Plantago lanceolata).
Plants were treated postemergence with the compound formulated with a non-phytotoxic carrier. Plants were visually rated 18 days after treatment (DAT). Response ratings were based on the scale of 0 to 100 where 0 = no effect, 20 = minimal injury and 100 = complete control.

Common ragweed = experiment: Test 11 citrus pots, preemergence to the weeds; type: in vivo, Ambrosia artemisiifolia; settings: Preemergence 32 g/ha; 0.25% X-77 surfactant; scale 0-100
Experimental: Budded citrus seedlings were planted in 30-liter plastic pots which were also seeded with sandbur, guineagrass, narrowleaf panicum, common ragweed, yellow nutsedge, purple nutsedge and bindweed. Compound I was applied preemergence and postemergence to the weeds. Treatments were sprayed to simulate the trunk-to-trunk herbicide application method used in some citrus groves. The compound was also applied postemergence to weeds grown in windowsill flats. The flats were filled with planting medium and seeded with morningglory (Ipomoea spp.). purple nutsedge (Cyperus rotundus), pigweed (Amaranthus spp.), bindweed (Convolvulus spp.), narrowleaf panicum (Panicum maximum), common ragweed (Ambrosia artemisiifolia), sandbur (Cenchrus echinatus), itchgrass (Rottboellia exaltata), johnsongrass (Sorghum halepense), guineagrass (Panicum maximum), smooth crabgrass (Digitaria ischaemum), broadleaf signalgrass (Brachiaria platyphylla), bermudagrass (Cynodon dactylon), goosegrass (Eleusine indica), large crabgrass (Digitaria sanguinalis) and yellow nutsedge (Cyperus esculentus).
The compound was formulated and sprayed with 0.25% X-77 surfactant in water. Plants were visually rated 21 and 29 days after treatment and compared with appropriate controls. Injury ratings were based on the scale of 0 to 100, where 0 indicates no effect, 20 indicates minimum effect and 100 indicates complete control. […]

COC(=O)c1cccnc1S(=O)(=O)NC(=O)Nc1nc(OC)cc(OC)n1 [Compound I, 2-[[(4,6-dimethoxypyrimidin-2-yl)aminocarbonyl]aminosulfonyl]-3-pyridinecarboxylic acid, methyl ester]
Control Rating 17 DAT (Crabgrass; 8 g/ha): 50 | Control Rating 17 DAT (Crabgrass; 16 g/ha): 70 | Control Rating 17 DAT (Crabgrass; 32 g/ha): 100 | visual assessment of weed control (Convolvulus arvensis; 4 g/ha): 90 | visual assessment of weed control (Convolvulus arvensis; 8 g/ha): 100 | visual assessment of weed control (Convolvulus arvensis; 16 g/ha): 100 | visual assessment of weed control (Convolvulus arvensis; 32 g/ha): 100 | visual assessment of weed control (Convolvulus arvensis; 64 g/ha): 100 | visual assessment of weed control (Convolvulus arvensis; 125 g/ha): 100 | visual assessment of weed control (Salsoa kali; 4 g/ha): 100 | visual assessment of weed control (Salsoa kali; 8 g/ha): 100 | visual assessment of weed control (Salsoa kali; 16 g/ha): 100 | visual assessment of weed control (Salsoa kali; 32 g/ha): 100 | visual assessment of weed control (Salsoa kali; 64 g/ha): 100 | visual assessment of weed control (Salsoa kali; 125 g/ha): 100 | visual assessment of weed control (Avena fatua; 4 g/ha): 80 | visual assessment of weed control (Avena fatua; 8 g/ha): 80 | visual assessment of weed control (Avena fatua; 16 g/ha): 100 | visual assessment of weed control (Avena fatua; 32 g/ha): 100 | visual assessment of weed control (Avena fatua; 64 g/ha): 100 | visual assessment of weed control (Avena fatua; 125 g/ha): 100 | visual assessment of weed control (Bromus tectorum; 4 g/ha): 100 | visual assessment of weed control (Bromus tectorum; 8 g/ha): 100 | visual assessment of weed control (Bromus tectorum; 16 g/ha): 100 | visual assessment of weed control (Bromus tectorum; 32 g/ha): 100 | visual assessment of weed control (Bromus tectorum; 64 g/ha): 100 | visual assessment of weed control (Bromus tectorum; 125 g/ha): 100 | visual assessment of weed control (Kochia scoparia; 4 g/ha): 100 | visual assessment of weed control (Kochia scoparia; 8 g/ha): 100 | visual assessment of weed control (Kochia scoparia; 16 g/ha): 100 | visual assessment of weed control (Kochia scoparia; 32 g/ha): 100 | visual assessment of weed control (Kochia scoparia; 64 g/ha): 100 | visual assessment of weed control (Kochia scoparia; 125 g/ha): 100 | visual assessment of weed control (Secale cereale; 4 g/ha): 70 | visual assessment of weed control (Secale cereale; 8 g/ha): 100 | visual assessment of weed control (Secale cereale; 16 g/ha): 100 | visual assessment of weed control (Secale cereale; 32 g/ha): 100 | visual assessment of weed control (Secale cereale; 64 g/ha): 100 | visual assessment of weed control (Secale cereale; 125 g/ha): 100 | Plant Injury Rating 15 DAT (Wild buckwheat): 100 | Plant Injury Rating 22 DAT (Coffee; 8 g/ha): 0 | Plant Injury Rating 22 DAT (Coffee; 16 g/ha): 0 | Plant Injury Rating 22 DAT (Coffee; 32 g/ha): 0 | Plant Injury Rating 18 DAT (Sheperdspurse; 16 g/ha): 100 | Plant Injury Rating 18 DAT (Sheperdspurse; 32 g/ha): 100 | Injury ratings (Common ragweed): 20

From patent EP0314302A2, “Herbicidal o-carbomethoxy-sulfonylureas” (E.I. DU PONT DE NEMOURS AND COMPANY, priority 1987, dated 1989)
